Assays:
Format in all cases: in vivo
[1] = tested on: male Sprague-Dawley rats; assay: UVB Inflammatory Pain Test (thermal hyperalgesia); details: rat, oral; for paw withdrawal latency, 1 h: 1 h after dosing; for paw withdrawal latency, 2 h: 2 h after dosing; for paw withdrawal latency, 4 h: 4 h after dosing
In short: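 Left hind-paw plantar UVB (350 mJoules/cm^2) given on Day −3 to male Sprague-Dawley rats; on Day 0, test compounds dosed orally at 3, 10, 30 or 100 mg/kg, with water vehicle, celecoxib 30 mg/kg and acetaminophen 300 mg/kg. Radiant-heat paw withdrawal latency (mean of 3, 30 s cutoff) measured before dosing and about 1, 2 and 4 h after.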

[2] = tested on: male Sprague-Dawley rats; assay: Osteoarthritis Pain Test (MIA, mechanical hyperalgesia); details: rat; for joint compression threshold, Day 3, 1 h: Day 3, 1 h post-dosing; for joint compression threshold, Day 3, 2 h: Day 3, 2 h post-dosing; for joint compression threshold, Day 3, 4 h: Day 3, 4 h post-dosing; for joint compression threshold, Day 6, 1 h: Day 6, 1 h post-dosing; for joint compression threshold, Day 6, 2 h: Day 6, 2 h post-dosing; for joint compression threshold, Day 6, 4 h: Day 6, 4 h post-dosing; for joint compression threshold, Day 0, 1 h: Day 0, 1 h post-dosing; for joint compression threshold, Day 0, 2 h: Day 0, 2 h post-dosing; for joint compression threshold, Day 0, 4 h: Day 0, 4 h post-dosing
Method: Osteoarthritis pain was induced in non-fasted male Sprague-Dawley rats weighing 150-250 g by injecting 2 mg of monosodium iodoacetate (MIA) into the left knee joint. Mechanical hyperalgesia was measured using a digital Randall-Selitto device (dRS; IITC Life Sciences©; Woodland Hills, Calif.). Animals were allowed to acclimate to the testing room for a minimum of 15 minutes before testing. Animals were placed in a restraint sling that suspended the animal, leaving the hind limbs available for testing. The stimulus was applied to the knee joint by a blunt tip and pressure was applied gradually over approximately 10 seconds. Joint compression threshold values were recorded at the first observed nocifensive behavior (vocalization, struggle, or withdrawal). One reading per joint was taken at each time point, and a maximum stimulus cutoff of 500 grams was used to prevent injury to the animal. Mechanical hyperalgesia was assessed prior to MIA injection, and again 14 days later. After 14 days, test or control articles were administered once daily for 7 days with mechanical hyperalgesia assessed prior to dosing, 1, 2, and 4 hours post-dosing on days 0, 3, and 6. Test compounds were administered orally at concentrations of 3, 10, 30 or 100 mg/kg and celecoxib was administered orally at a concentration of 30 mg/kg. The control group received the vehicle (sterile water). After day 0, groups receiving the 100 mg/kg dose were reduced to a dose of 3 mg/kg. In Table 5, ‘A’ designates ≥375 grams of joint compression, ‘B’ designates ≥325 and <375 grams of joint compression, and ‘C’ designates <325 grams of joint compression.
The results provided in Table 5 are for oral administration in rats.

[3] = tested on: male Sprague-Dawley rats; assay: Post-Incisional (Brennan) Pain Test; details: rat, oral; for cumulative pain score, 4 h: 4 h post-dosing; for cumulative pain score, 24 h: 24 h post-dosing
Method: Incisional pain was induced in non-fasted male Sprague-Dawley rats weighing 180-300 g by making a 1-cm plantar incision in the left hind paw and is designed to mimic pain and sensitivity similar to what is reported by patients after surgery. Dosing occurred at the time of incision and spontaneous pain was measured 4 and 24 hours post-dosing using a cumulative pain score. The unrestrained animals were placed on a metal mesh platform and allowed to acclimate for about 15 min/ Each animal was closely observed during a 1-min period repeated every 5 min for 1 h (12 times total). Depending on the position in which the foot was found during the scoring period, a score of 0, 1, or 2 was given. Full weight bearing of the foot (score=0) was present if the skin on the plantar surface of the paw wound was blanched or distorted by the mesh. If the foot was completely off the mesh, or one or more instances of licking or flinching was observed, a score of 2 was recorded and the licking or flinching was noted but not counted. If the plantar surface of the paw touched the mesh without blanching or distorting, a score of 1 was given. The sum of the 12 scores obtained during the 1 h session was calculated (maximum score=24) for each animal. Observations were made during hours 4 and 24. Test articles were administered orally at concentrations of 10, 30 or 100 mg/kg and ketoprofen was administered subcutaneously at a concentration of 10 mg/kg. The control group received the vehicle (sterile water). In Table 6, ‘A’ designates a cumulative pain score of ≤11, ‘B’ designates >11 and ≤16, and ‘C’ designates >16.
The results provided in Table 6 are for oral administration in rats.

[4] = oral once daily, 3 mg/kg (group had 100 mg/kg on day 0)

Cl.NC12CC(c3nc(C(F)(F)F)cs3)(C1)C2 [Compound 1, 3-(4-(Trifluoromethyl)thiazol-2-yl)bicyclo[1.1.1]pentan-1-amine hydrochloride] was tested. Which “paw withdrawal latency, 1 h” value ([1]; 3 mg/kg) did it give?
Its value is “B (>6 and <8 seconds of paw withdrawal latency)”.

What about the “paw withdrawal latency, 2 h” value ([1]; 3 mg/kg) of the same compound?
Its value is “B (>6 and <8 seconds of paw withdrawal latency)”.

And the “paw withdrawal latency, 4 h” value ([1]; 3 mg/kg)?
The value was “B (>6 and <8 seconds of paw withdrawal latency)”.

And the “paw withdrawal latency, 1 h” value ([1]; 10 mg/kg)?
The value was “B (>6 and <8 seconds of paw withdrawal latency)”.

What about the “paw withdrawal latency, 2 h” value ([1]; 10 mg/kg) of the same compound?
The value was “B (>6 and <8 seconds of paw withdrawal latency)”.

And the “paw withdrawal latency, 4 h” value ([1]; 10 mg/kg)?
The value was “B (>6 and <8 seconds of paw withdrawal latency)”.

And the “paw withdrawal latency, 1 h” value ([1]; 30 mg/kg)?
Its value is “A (>8 seconds of paw withdrawal latency)”.

And the “paw withdrawal latency, 2 h” value ([1]; 30 mg/kg)?
The value was “A (>8 seconds of paw withdrawal latency)”.

What about the “paw withdrawal latency, 4 h” value ([1]; 30 mg/kg) of the same compound?
Its value is “A (>8 seconds of paw withdrawal latency)”.

What about the “paw withdrawal latency, 1 h” value ([1]; 100 mg/kg) of the same compound?
Its value is “A (>8 seconds of paw withdrawal latency)”.

What about the “paw withdrawal latency, 2 h” value ([1]; 100 mg/kg) of the same compound?
The value was “A (>8 seconds of paw withdrawal latency)”.

What about the “paw withdrawal latency, 4 h” value ([1]; 100 mg/kg) of the same compound?
Its value is “A (>8 seconds of paw withdrawal latency)”.

And the “joint compression threshold, Day 3, 1 h” value [2, 4]?
The value was “A (≥375 grams of joint compression)”.

What about the “joint compression threshold, Day 3, 2 h” value [2, 4] of the same compound?
Its value is “A (≥375 grams of joint compression)”.

What about the “joint compression threshold, Day 3, 4 h” value [2, 4] of the same compound?
Its value is “A (≥375 grams of joint compression)”.

And the “joint compression threshold, Day 6, 1 h” value [2, 4]?
The value was “A (≥375 grams of joint compression)”.

What about the “joint compression threshold, Day 6, 2 h” value [2, 4] of the same compound?
The value was “B (≥325 and <375 grams of joint compression)”.

What about the “joint compression threshold, Day 6, 4 h” value [2, 4] of the same compound?
Its value is “A (≥375 grams of joint compression)”.

What about the “joint compression threshold, Day 0, 1 h” value ([2]; oral once daily, 10 mg/kg) of the same compound?
The value was “B (≥325 and <375 grams of joint compression)”.

And the “joint compression threshold, Day 0, 2 h” value ([2]; oral once daily, 10 mg/kg)?
Its value is “C (<325 grams of joint compression)”.

What about the “joint compression threshold, Day 0, 4 h” value ([2]; oral once daily, 10 mg/kg) of the same compound?
Its value is “C (<325 grams of joint compression)”.

And the “joint compression threshold, Day 3, 1 h” value ([2]; oral once daily, 10 mg/kg)?
Its value is “B (≥325 and <375 grams of joint compression)”.

And the “joint compression threshold, Day 3, 2 h” value ([2]; oral once daily, 10 mg/kg)?
Its value is “B (≥325 and <375 grams of joint compression)”.

And the “joint compression threshold, Day 3, 4 h” value ([2]; oral once daily, 10 mg/kg)?
The value was “B (≥325 and <375 grams of joint compression)”.

What about the “joint compression threshold, Day 6, 1 h” value ([2]; oral once daily, 10 mg/kg) of the same compound?
Its value is “B (≥325 and <375 grams of joint compression)”.

What about the “joint compression threshold, Day 6, 2 h” value ([2]; oral once daily, 10 mg/kg) of the same compound?
The value was “B (≥325 and <375 grams of joint compression)”.

What about the “joint compression threshold, Day 6, 4 h” value ([2]; oral once daily, 10 mg/kg) of the same compound?
Its value is “B (≥325 and <375 grams of joint compression)”.

What about the “joint compression threshold, Day 0, 1 h” value ([2]; oral once daily, 30 mg/kg) of the same compound?
Its value is “B (≥325 and <375 grams of joint compression)”.

And the “joint compression threshold, Day 0, 2 h” value ([2]; oral once daily, 30 mg/kg)?
Its value is “B (≥325 and <375 grams of joint compression)”.

What about the “joint compression threshold, Day 0, 4 h” value ([2]; oral once daily, 30 mg/kg) of the same compound?
Its value is “B (≥325 and <375 grams of joint compression)”.

And the “joint compression threshold, Day 3, 1 h” value ([2]; oral once daily, 30 mg/kg)?
The value was “A (≥375 grams of joint compression)”.

What about the “joint compression threshold, Day 3, 2 h” value ([2]; oral once daily, 30 mg/kg) of the same compound?
The value was “A (≥375 grams of joint compression)”.

What about the “joint compression threshold, Day 3, 4 h” value ([2]; oral once daily, 30 mg/kg) of the same compound?
The value was “B (≥325 and <375 grams of joint compression)”.

And the “joint compression threshold, Day 6, 1 h” value ([2]; oral once daily, 30 mg/kg)?
Its value is “A (≥375 grams of joint compression)”.

And the “joint compression threshold, Day 6, 2 h” value ([2]; oral once daily, 30 mg/kg)?
The value was “B (≥325 and <375 grams of joint compression)”.

And the “joint compression threshold, Day 6, 4 h” value ([2]; oral once daily, 30 mg/kg)?
The value was “B (≥325 and <375 grams of joint compression)”.

What about the “joint compression threshold, Day 0, 1 h” value ([2]; oral, 100 mg/kg) of the same compound?
Its value is “A (≥375 grams of joint compression)”.

And the “joint compression threshold, Day 0, 2 h” value ([2]; oral, 100 mg/kg)?
The value was “A (≥375 grams of joint compression)”.

What about the “joint compression threshold, Day 0, 4 h” value ([2]; oral, 100 mg/kg) of the same compound?
The value was “A (≥375 grams of joint compression)”.

And the “cumulative pain score, 4 h” value ([3]; 10 mg/kg)?
The value was “C (>16)”.

And the “cumulative pain score, 24 h” value ([3]; 10 mg/kg)?
Its value is “B (>11 and ≤16)”.

And the “cumulative pain score, 4 h” value ([3]; 30 mg/kg)?
Its value is “A (a cumulative pain score of ≤11)”.

And the “cumulative pain score, 24 h” value ([3]; 30 mg/kg)?
Its value is “A (a cumulative pain score of ≤11)”.

What about the “cumulative pain score, 4 h” value ([3]; 100 mg/kg) of the same compound?
The value was “A (a cumulative pain score of ≤11)”.

What about the “cumulative pain score, 24 h” value ([3]; 100 mg/kg) of the same compound?
The value was “A (a cumulative pain score of ≤11)”.
